Key:
Type in all cases: in vivo
[1] = system: western flower thrip (Frankliniella occidentalis Pergande); assay: whole plant or invertebrate; settings: single compound, spray, 7 days
Summary of the method: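 Compounds in 10% acetone/90% water with 300 ppm non-ionic surfactant were sprayed onto 5- to 7-day-old bean plants, 3 replicates. After 1 h drying, 22–27 adult thrips were added per unit. Units were held 7 days at 25° C, 45–55% RH, assessing contact and/or systemic control.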

[2] = system: diamondback moth (Plutella xylostella); assay: whole plant or invertebrate
Protocol: The test compounds were dissolved in water. […] Serial dilutions were made to obtain the appropriate concentrations. To obtain the desired mixture concentrations of each compound, twice the desired concentration of each of the two mixture partner compounds were mixed together in equal volumes.
The diluted solutions of the test compounds were sprayed to run-off on three-week-old tomato plants. The plants were placed on a rotating turntable sprayer (10 rpm). Test solutions were applied using a flat fan air-assisted nozzle (Spraying Systems 122440) at 10 psi (69 kPa). […] The leaves were cut into pieces, which were placed singly into 5.5 cm-by-3.5 cm cells of a sixteen-cell plastic tray. Each cell contained a 2.5-cm square of moistened chromatography paper to prevent desiccation. One insect was placed in each cell. There two trays per treatment. Trays were held in the growth chamber at 25° C., 16-hour light:8-hour dark, 60% relative humidity for 4 days.
For evaluating control of diamondback moth (Plutella xylostella), cabbage (var. Stonehead) plants were grown in Metromix potting soil in 10-cm pots in aluminum trays to test size (28 days, 3-4 full leaves) the plants were sprayed to the point of runoff using the turntable sprayer as described in Test I. Test compounds were formulated and sprayed on test plants as described for Test I. After drying for 2 hours, the treated leaves were excised and infested with one cabbage looper per cell and covered. The test units were placed on trays and put in a growth chamber at 25° C. and 60% relative humidity for 4 days.

[3] = system: potato leafhopper (Empoasca fabae Harris); assay: whole plant or invertebrate; settings: alone
Summary of the method: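 Bean plants (5–6 days old, one primary leaf excised) were sprayed with 1 mL of compound in 10% acetone/water with 300 ppm X-77 surfactant, 3 replicates. After drying for 1 h, each unit was infested with 5 adult leafhoppers. Units were held 6 days at 19–21 °C and 50–70% RH.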

[4] = system: green peach aphid (Myzus persicae Sulzer); assay: whole plant or invertebrate; settings: Green Peach Aphid
Summary of the method: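 Compounds formulated in 10% acetone/water with 300 ppm X-77 surfactant were atomized onto aphid-infested radish seedlings, with three replicates per treatment. Infestation was 30–40 aphids transferred on excised leaf pieces, covering contact and systemic exposure. Test units stayed 6 days in a growth chamber at 19–21 °C and 50–70% relative humidity.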

[5] = system: silverleaf whitefly (Bemisia argentifolii Bellows and Perring); assay: whole plant or invertebrate; settings: Table 2B
Summary of the method: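 Whitefly-egg-infested 12–14-day-old cotton plants sprayed with compound in 10% acetone/90% water plus 300 ppm non-ionic surfactant, in triplicate. Plants then held 13 days at 28 °C and 50–70% relative humidity before mortality assessment.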

[6] = system: cotton melon aphid (Aphis gossypii Glover); assay: whole plant or invertebrate
Summary of the method: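 Cotton plants (6–7 days old) pre-infested with 30–40 aphids by cut-leaf method, sprayed with compound (ppm) in 10% acetone/90% water with 300 ppm X-77 surfactant, three replicates. Held 6 days at 19–21 °C, 50–70% RH; contact and/or systemic control assessed.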

[7] = system: corn planthopper (Peregrines maidis); assay: whole plant or invertebrate; settings: Corn Plant Hopper
Summary of the method: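 Compounds in 10% acetone/90% water with 300 ppm X-77 surfactant sprayed (3 replications) onto 3- to 4-day-old corn plants, dried 1 h, then infested with 10–20 corn planthopper nymphs aged 18–20 days. Held 6 days at 19-21° C. and 50-70% relative humidity; contact and/or systemic control assessed.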

[8] = system: beet armyworm (Spodoptera exigua); assay: Test I: control of beet armyworm, spray on tomato plants, excised leaves, % mortality and % feeding at 72 hours
Protocol: For evaluating control of beet armyworm (Spodoptera exigua), methomyl was in the liquid formulation as Lannate® LV (29% of active ingredient). Compound 1 was in a water dispersible granules (WDG) formulation with 35% active ingredient. The test compounds were dissolved in water. Enough water was added to make 100 ppm of active ingredient for each compound. Serial dilutions were made to obtain the appropriate concentrations. To obtain the desired mixture concentrations of each compound, twice the desired concentration of each of the two mixture partner compounds were mixed together in equal volumes.
The diluted solutions of the test compounds were sprayed to run-off on three-week-old tomato plants. The plants were placed on a rotating turntable sprayer (10 rpm). Test solutions were applied using a flat fan air-assisted nozzle (Spraying Systems 122440) at 10 psi (69 kPa). After each treated plant had dried, leaves were excised from the treated plant. The leaves were cut into pieces, which were placed singly into 5.5 cm-by-3.5 cm cells of a sixteen-cell plastic tray. Each cell contained a 2.5-cm square of moistened chromatography paper to prevent desiccation. One insect was placed in each cell. There two trays per treatment. […]

Molecule: N#CCNC(=O)c1cnccc1C(F)(F)F [Flonicamid]
- % mortality (obs) ([1]; rate 10 ppm): 20%
- % mortality (obs) ([1]; rate 100 ppm): 80%
- % mortality (obs) ([1]; rate 1000 ppm): 70%
- % mortality (obs) ([2]; rate 1 ppm): 0%
- % mortality (obs) ([2]; rate 15 ppm): 60%
- % mortality (obs) ([2]; rate 1000 ppm): 30%
- % mortality (obs) ([3]; rate 100 ppm): 100%
- % mortality (obs) ([3]; rate 400 ppm): 100%
- % mortality (obs) ([3]; rate 1000 ppm): 40%
- % mortality (obs) ([4]; rate 0.1 ppm): 16%
- % mortality (obs) ([4]; rate 0.2 ppm): 10%
- % mortality (obs) ([4]; rate 2 ppm): 33%
- % mortality (obs) ([5]; rate 0.1 ppm): 2%
- % mortality (obs) ([5]; rate 0.2 ppm): 2%
- % mortality (obs) ([5]; rate 0.5 ppm): 2%
- % mortality (obs) ([6]; rate 0.2 ppm): 9%
- % mortality (obs) ([6]; rate 1 ppm): 46%
- % mortality (obs) ([6]; rate 5 ppm): 92%
- % mortality (obs) ([7]; rate 2 ppm): 52%
- % mortality (obs) ([7]; rate 15 ppm): 42%
- % mortality (obs) ([7]; rate 150 ppm): 90%

Molecule: CNC(=O)ON=C(C)SC [Methomyl]
- % mortality (obs) ([1]; rate 30 ppm): 60%
- % mortality (obs) ([1]; rate 100 ppm): 60%
- % mortality (obs) ([1]; rate 300 ppm): 100%
- % mortality (obs) ([2]; rate 30 ppm): 80%
- % mortality (obs) ([2]; rate 40 ppm): 90%
- % mortality (obs) ([2]; rate 50 ppm): 80%
- % feeding ([8]; Methomyl 5.22 ppm): 17%
- % mortality (observed) ([8]; Methomyl 5.22 ppm): 6%
- % feeding ([8]; Methomyl 10.9 ppm): 29%
- % mortality (observed) ([8]; Methomyl 10.9 ppm): 10%
- % feeding ([8]; Methomyl 16.3 ppm): 9%
- % mortality (observed) ([8]; Methomyl 16.3 ppm): 44%
- % feeding ([8]; Methomyl 20.6 ppm): 10%
- % mortality (observed) ([8]; Methomyl 20.6 ppm): 16%
- % feeding ([8]; Methomyl 37.8 ppm): 3%
- % mortality (observed) ([8]; Methomyl 37.8 ppm): 44%
- % feeding ([8]; Methomyl 100 ppm): 0%
- % mortality (observed) ([8]; Methomyl 100 ppm): 84%
- % mortality (obs) ([3]; rate 1 ppm): 0%
- % mortality (obs) ([3]; rate 2 ppm): 53%
- % mortality (obs) ([3]; rate 5 ppm): 100%
- % mortality (obs) ([4]; rate 50 ppm): 20%
- % mortality (obs) ([4]; rate 100 ppm): 61%
- % mortality (obs) ([4]; rate 200 ppm): 100%
- % mortality (obs) ([5]; rate 10 ppm): 4%
- % mortality (obs) ([5]; rate 100 ppm): 3%
- % mortality (obs) ([5]; rate 1000 ppm): 6%
- % mortality (obs) ([6]; rate 2 ppm): 11%
- % mortality (obs) ([6]; rate 5 ppm): 35%
- % mortality (obs) ([6]; rate 15 ppm): 64%
- % mortality (obs) ([7]; rate 0.5 ppm): 5%
- % mortality (obs) ([7]; rate 1 ppm): 21%
- % mortality (obs) ([7]; rate 2 ppm): 19%

Molecule: Dieldrin
- % mortality (obs) ([1]; rate 10 ppm): 10%
- % mortality (obs) ([1]; rate 100 ppm): 20%
- % mortality (obs) ([1]; rate 1000 ppm): 30%
- % mortality (obs) ([2]; rate 2 ppm): 90%
- % mortality (obs) ([2]; rate 2.5 ppm): 100%
- % mortality (obs) ([2]; rate 3 ppm): 100%
- % mortality (obs) ([3]; rate 2.5 ppm): 27%
- % mortality (obs) ([3]; rate 5 ppm): 100%
- % mortality (obs) ([3]; rate 10 ppm): 100%
- % mortality (obs) ([4]; rate 10 ppm): 59%
- % mortality (obs) ([4]; rate 100 ppm): 43%
- % mortality (obs) ([4]; rate 1000 ppm): 41%
- % mortality (obs) ([5]; rate 10 ppm): 0%
- % mortality (obs) ([5]; rate 100 ppm): 0%
- % mortality (obs) ([5]; rate 1000 ppm): 0%
- % mortality (obs) ([6]; rate 1 ppm): 13%
- % mortality (obs) ([6]; rate 5 ppm): 26%
- % mortality (obs) ([6]; rate 50 ppm): 66%
- % mortality (obs) ([7]; rate 0.1 ppm): 37%
- % mortality (obs) ([7]; rate 0.2 ppm): 57%
- % mortality (obs) ([7]; rate 0.3 ppm): 71%

Molecule: Pyridaben
- % mortality (obs) ([1]; rate 10 ppm): 30%
- % mortality (obs) ([1]; rate 80 ppm): 50%
- % mortality (obs) ([1]; rate 200 ppm): 60%
- % mortality (obs) ([2]; rate 100 ppm): 100%
- % mortality (obs) ([2]; rate 150 ppm): 80%
- % mortality (obs) ([2]; rate 200 ppm): 100%
- % mortality (obs) ([3]; rate 1 ppm): 0%
- % mortality (obs) ([3]; rate 2.5 ppm): 13%
- % mortality (obs) ([3]; rate 10 ppm): 100%
- % mortality (obs) ([4]; rate 1 ppm): 100%
- % mortality (obs) ([4]; rate 10 ppm): 14%
- % mortality (obs) ([4]; rate 60 ppm): 60%
- % mortality (obs) ([5]; rate 20 ppm): 21%
- % mortality (obs) ([5]; rate 30 ppm): 55%
- % mortality (obs) ([5]; rate 50 ppm): 73%
- % mortality (obs) ([6]; rate 1 ppm): 11%
- % mortality (obs) ([6]; rate 2 ppm): 15%
- % mortality (obs) ([6]; rate 10 ppm): 71%
- % mortality (obs) ([7]; rate 2 ppm): 10%
- % mortality (obs) ([7]; rate 2.5 ppm): 2%
- % mortality (obs) ([7]; rate 3 ppm): 2%

Molecule: Spinosad
- % mortality (obs) ([1]; rate 0.1 ppm): 20%
- % mortality (obs) ([1]; rate 0.5 ppm): 60%
- % mortality (obs) ([1]; rate 3 ppm): 90%
- % mortality (obs) ([2]; rate 10 ppm): 100%
- % mortality (obs) ([2]; rate 100 ppm): 90%
- % mortality (obs) ([2]; rate 1000 ppm): 100%
- % mortality (obs) ([3]; rate 30 ppm): 73%
- % mortality (obs) ([3]; rate 100 ppm): 80%
- % mortality (obs) ([3]; rate 110 ppm): 47%
- % mortality (obs) ([4]; rate 10 ppm): 25%
- % mortality (obs) ([4]; rate 100 ppm): 46%
- % mortality (obs) ([4]; rate 1000 ppm): 59%
- % mortality (obs) ([5]; rate 100 ppm): 66%
- % mortality (obs) ([5]; rate 150 ppm): 69%
- % mortality (obs) ([5]; rate 300 ppm): 95%
- % mortality (obs) ([6]; rate 10 ppm): 16%
- % mortality (obs) ([6]; rate 100 ppm): 35%
- % mortality (obs) ([6]; rate 1000 ppm): 30%
- % mortality (obs) ([7]; rate 5 ppm): 100%
- % mortality (obs) ([7]; rate 10 ppm): 100%
- % mortality (obs) ([7]; rate 20 ppm): 100%

Molecule: Thiamethoxam
- % mortality (obs) ([1]; rate 5 ppm): 20%
- % mortality (obs) ([1]; rate 50 ppm): 80%
- % mortality (obs) ([1]; rate 250 ppm): 90%
- % mortality (obs) ([2]; rate 30 ppm): 90%
- % mortality (obs) ([2]; rate 40 ppm): 100%
- % mortality (obs) ([2]; rate 50 ppm): 100%
- % mortality (obs) ([3]; rate 0.1 ppm): 80%
- % mortality (obs) ([3]; rate 0.2 ppm): 100%
- % mortality (obs) ([3]; rate 0.4 ppm): 100%
- % mortality (obs) ([4]; rate 0.2 ppm): 35%
- % mortality (obs) ([4]; rate 0.4 ppm): 94%
- % mortality (obs) ([4]; rate 0.6 ppm): 100%
- % mortality (obs) ([5]; rate 5 ppm): 15%
- % mortality (obs) ([5]; rate 15 ppm): 78%
- % mortality (obs) ([5]; rate 30 ppm): 92%
- % mortality (obs) ([6]; rate 0.2 ppm): 24%
- % mortality (obs) ([6]; rate 0.4 ppm): 48%
- % mortality (obs) ([6]; rate 0.6 ppm): 66%
- % mortality (obs) ([7]; rate 0.2 ppm): 100%
- % mortality (obs) ([7]; rate 0.4 ppm): 100%
- % mortality (obs) ([7]; rate 0.6 ppm): 100%

Source: patent US8937089B2, “Synergistic mixtures of anthranilamide invertebrate pest control agents” (priority 2004, dated 2015)
